Reference: patent US12410148B2, “Antibody drug conjugates” (Pharma Mar, S.A., priority 2013, dated 2025)
≈ marks a conversion by molar mass, not a printed value. Where “and” joins values, the source holds several entries; their conditions need not be identical. Equal values may be shown once. Read-outs that look alike come from different tables or passages of the source.

Tests used:
[1] = system: Karpas-299, MOLT-4, Raji and RPMI-8226 cells; assay: In vitro cytotoxicity, whole CD5 cell panel; conditions: for IC50: Homo sapiens
Description: (§1) All tumor cell lines used in this study were obtained from the American Type Culture Collection (ATCC), unless otherwise indicated; BT-474 (ATCC HTB-20, Breast Ductal Carcinoma), SK-BR-3 (ATCC HTB-30, Breast Adenocarcinoma) and HCC-1954 (ATCC CRL-2338, Breast Ductal Carcinoma), all HER2+; MDA-MB-231 (ATCC HTB-26, Breast Adenocarcinoma) and MCF-7 (ATCC HTB-22 Breast Adenocarcinoma, pleural effusion), all HER2-; SK-OV-3 (ATCC HTB-77, Ovary Adenocarcinoma), HER2+; NB-4 (Acute Promyelocytic Leukemia, APL, CD13+, M. Lanotte et al. (1991) NB4, a maturation inducible cell line with t(15;17) marker isolated from a human acute promyelocytic leukemia (M3). Blood 77, 1080-1086), (CD13+) and U937 (ATCC CRL-1 593.2, Histiocytic Lymphoma, CD13+ and CD4+); Raji (ATCC CCL-86, Burkitt's Lymphoma) (CD13−, CD20+, CD5−, and CD4−); RPMI-8226 (ATCC CRM-CCL-155, Multiple Myeloma) (CD13−, CD20−, CD5− and CD4−); Karpas-299 (DSMZ ACC-31, Non-Hodgkin's Lymphoma) (CD20−, CD5+, and CD4+); MOLT-4 (ATCC CRL-1 582, Acute Lymphoblastic Leukemia, CD5+). In addition, the two Raji cell (ATCC CCL-86, Burkitt's Lymphoma) clones used in this study Raji-clone #10 (high CD5 expression) and Raji-clone18 (null CD5 expression), were provided by Dr. Juan M. Zapata (Instituto de Investigaciones Biomedicas “Alberto Sols”, CSIC-UAM, Madrid, Spain). Cells were maintained at 37° C., 5% CO 2 and 95% humidity in Dulbecco's Modified Eagle's Medium (DMEM) (for MCF and MDA-MB-231 cells), RPMI-1640 (for SK-BR-3, HCC-1954, NB-4, U937, Raji, RPMI-8226, Karpas-299, MOLT-4, Raji-clone #10 and Raji-clone #18 cells), RPMI-1640+1% ITS (for BT-474 cells) or McCOyS (for SK-OV-3 cells), all media supplemented with 10% Fetal Calf Serum (FCS) and 100 units/mL penicillin and streptomycin.
(§2) For suspension cells: A standard metabolic assay using MTT (3-(4,5-Dimethylthiazol-2-yl)-2,5-diphenyltetrazolium bromide) was adapted for quantitative measurement of cell growth and cytotoxicity, as described in T. Mosmann (1983) Rapid colorimetric assay for cellular growth and survival: Application to proliferation and cytotoxicity assays. J. Immunol. Meth., 65, 55-63. Briefly, MTT solution was added to the cell cultures at a final concentration of 0.5 mg/mL, and incubated for 1 to 4 hours at 37° C. until formazan crystals are formed. Culture medium is carefully removed from the cell cultures and formazan crystals resuspended in 100 μl DMSO. After mixing to assure solubilization, the quantity of formazan (presumably directly proportional to the number of viable cells) is measured by recording changes in absorbance at 570 nm using a plate reading spectrophotometer. Cell survival was expressed as percentage of control, untreated cell survival.
(§3) The IC50 value refers to the concentration of compound inducing a 50% of cell death as compared to the control cell survival.
(§4) The in vitro cytotoxic activity of ADC14 along with the parent cytotoxic Compounds 1, 4, and 40, was evaluated against different human cancer cell lines expressing or not the CD5 antigen, including Karpas-299 and MOLT-4 (both CD5+); Raji and RPMI-8226 (both CD5−). Standard dose-response (DR) curves for 72 hours were performed.

RPMI-8226 cells = assay: In vitro cytotoxicity, MTT assay, 72 h dose-response; type: cell-based, human; conditions: CD13−, CD20−, CD5−, CD4−
Description: (§6) Briefly, MTT solution was added to the cell cultures at a final concentration of 0.5 mg/mL, and incubated for 1 to 4 hours at 37° C. until formazan crystals are formed. Culture medium is carefully removed from the cell cultures and formazan crystals resuspended in 100 μl DMSO. […] Cell survival was expressed as percentage of control, untreated cell survival.

[2] = system: Raji-clone #18 (null CD5 expression); assay: as above; type: cell-based; conditions: Homo sapiens
Description: as §6

[3] = system: NB4, U937, Raji and RPMI-8226 cells; assay: In vitro cytotoxicity, whole CD13 cell panel; conditions: for IC50: Homo sapiens
Description: as §1, §2, §3
The in vitro cytotoxic activity of ADC9 along with the parent cytotoxic Compounds 1 and 4, was evaluated against different human tumor cell lines expressing or not the CD13 receptor, including NB4 and U937 (CD13 positive cells) and Raji and RPMI-8226 (CD13 negative cells). Standard dose-response (DR) curves for 72 hours were performed.

[4] = system: Raji-clone #10 (high CD5 expression); assay: In vitro cytotoxicity, MTT assay, 72 h dose-response; type: cell-based; conditions: Homo sapiens
Description: as §6

MOLT-4 cells = assay: as above; type: cell-based; conditions: Homo sapiens, CD5+
Description: as §6

[5] = system: Karpas-299, U937, Raji and RPMI-8226 cells; assay: In vitro cytotoxicity, whole CD4 cell panel; conditions: Homo sapiens
Description: as §1, §2, §3
as §4, with “ADC16” for “ADC14”, “CD4” for “CD5”, “U937” for “MOLT-4”, “CD4+);” for “CD5+);”, “CD4−).” for “CD5−).”

MDA-MB-231 cells = assay: In vitro cytotoxicity, SRB assay, 72 h dose-response; type: cell-based; conditions: Homo sapiens, MDA-MB-231, 72 h
Description: (§5) Nature Protocols, 1, 1112-1 116.

MCF-7 cells = assay: as above; type: cell-based; conditions: Homo sapiens, MCF7, 72 h
Description: as §5

[6] = system: Raji, RPMI-8226 and Karpas-299 cells; assay: In vitro cytotoxicity, whole CD20 cell panel; conditions: Homo sapiens
Description: as §1, §2, §3
The in vitro cytotoxic activity of ADC12 along with the parent cytotoxic Compounds 1, 4, and 40, was evaluated was assayed against different human cancer cell lines expressing or not the CD20 antigen, including Raji (CD20 positive cells); RPMI-8226 and Karpas-299 (CD20 negative cells). Standard dose-response (DR) curves for 72 hours were performed.

NB-4 cells = assay: In vitro cytotoxicity, MTT assay, 72 h dose-response; type: cell-based; conditions: Homo sapiens, CD13+
Description: as §6

U937 cells = assay: as above; type: cell-based, human; conditions: CD13+, CD4+
Description: as §6

[7] = read-out: IC50 values across the different cell lines tested (range)
[8] = read-out: mean IC50 value across the whole cell panel
[9] = Homo sapiens, RPMI-8226, 72 h, read-out: IC50

| SMILES | IC50 [1, 7] | IC50 [1, 8] | IC50 (RPMI-8226 cells; [9]) | IC50 ([2]; C#18 (null CD5)) | IC50 ([2]; clone #18, CD5 null) [pM] | IC50 [3, 7] | IC50 [3, 8] | IC50 ([4]; C#10 (high CD5)) | IC50 ([4]; clone #10, CD5 expressing) [pM] | IC50 (MOLT-4 cells) | IC50 [5, 7] | IC50 [5, 8] | IC50 (MDA-MB-231 cells; HER2−, 72 h, read-out: IC50) | IC50 (MCF-7 cells; HER2−, 72 h, read-out: IC50) | IC50 [6, 7] | IC50 [6, 8] | IC50 (NB-4 cells) | IC50 (RPMI-8226 cells) | IC50 (RPMI-8226 cells; read-out: IC50) | IC50 (U937 cells) [µg/mL] | also measured |
| --- | --- | --- | --- | --- | --- | --- | --- | --- | --- | --- | --- | --- | --- | --- | --- | --- | --- | --- | --- | --- | --- |
| COC1=CC[C@@H]([C@@H](C)/C=C(C)/C=C\C=C/C(=O)N[C@H](C(=O)N/C=C\C[C@H](C/C=C(\C)Cl)OC(=O)NCCCNC(=O)CCCCCN2C(=O)C=CC2=O)C(C)(C)C)OC1=O [Compound 1] | 1.8 to 11 ng/mL (≈ 2.1 to 12.8 nM) | 0.0046 µg/mL and 5.3 nM | 0.0025 µg/mL and 2.92 nM | 0.038 µg/mL and 44.4 nM | 44000 | 0.0008 µg/mL to 0.0063 µg/mL and 0.94 nM to 7.3 nM | 0.0028 µg/mL and 3.3 nM | 0.0029 µg/mL and 3.39 nM | 3400 | 0.00335 µg/mL and 3.91 nM | 0.0015 µg/mL to 0.0073 µg/mL and 1.7 nM to 8.6 nM | 0.0034 µg/mL and 3.9 nM | 0.0028 µg/mL and 3.27 nM | 0.0037 µg/mL and 4.32 nM | 0.0016 µg/mL to 0.0028 µg/mL and 1.9 nM to 3.3 nM | 0.0021 µg/mL and 2.5 nM | 0.000805 µg/mL and 0.939 nM | – | – | – | IC50 (U937 cells; Homo sapiens, U-937, 72 h, read-out: IC50): 0.00165 µg/mL and 1.93 nM |
| COC1=CC[C@@H]([C@@H](C)/C=C(C)/C=C\C=C/C(=O)N[C@H](C(=O)N/C=C\C[C@H](C/C=C(\C)Cl)OC(=O)NCCCN)C(C)(C)C)OC1=O [Compound 4] | 0.00063 µg/mL to 0.0027 µg/mL and 0.95 nM to 4.1 nM | 0.0013 µg/mL and 1.9 nM | 0.000358 µg/mL and 0.539 nM | > 15.1 nM and > 0.01 µg/mL | – | 7.9e-05 µg/mL to 0.00265 µg/mL and 0.12 nM to 4 nM | 0.00084 µg/mL and 1.2 nM | 0.0099 µg/mL and 14.9 nM | 15700 | 0.00091 µg/mL and 1.37 nM | 0.00061 µg/mL to 0.0027 µg/mL and 0.92 nM to 4.1 nM | 0.0012 µg/mL and 1.8 nM | 0.00031 µg/mL and 0.468 nM | 0.000415 µg/mL and 0.626 nM | 0.00057 µg/mL to 0.0014 µg/mL and 0.86 nM to 2.1 nM | 0.00097 µg/mL and 1.5 nM | 7.9e-05 µg/mL and 0.12 nM | 0.00057 µg/mL | 859 pM | 0.000278 | reduction of cytotoxic activity as compared to Compound 40 ([1]; amine containing group): around 1 log; IC20 ([2]; C#18 (null CD5)): 0.00677 µg/mL and 10.2 nM; mean IC50 value across the whole cell panel ([3]; CD13+ and CD13− lines): 1200 pM; IC20 ([4]; C#10 (high CD5)): 0.00465 µg/mL and 7.01 nM; IC50 (U937 cells; read-out: IC50): 419 pM |
| COC1=CC[C@@H]([C@@H](C)/C=C(C)/C=C\C=C/C(=O)N[C@H](C(=O)N/C=C\C[C@H](C/C=C(\C)Cl)OC(N)=O)C(C)(C)C)OC1=O [Compound 40] | 7.5e-05 µg/mL to 0.00036 µg/mL and 0.12 nM to 0.59 nM | 0.00016 µg/mL and 0.26 nM | – | 0.89 ng/mL | 1470 | 0.031 to 0.17 ng/mL (≈ 0.0511 to 0.28 nM) | 8.6e-05 µg/mL and 0.14 nM | 0.495 ng/mL | 817 | 9.3e-05 µg/mL and 0.154 nM | 0.13 nM to 0.47 nM and 7.9e-05 µg/mL to 0.00028 µg/mL | 0.00015 µg/mL and 0.25 nM | – | – | 8.6e-05 µg/mL to 0.00011 µg/mL and 0.14 nM to 0.19 nM | 9.6e-05 µg/mL and 0.16 nM | 3.1e-05 µg/mL and 0.052 nM | 8.65e-05 µg/mL and 0.00012 µg/mL | 143 pM and 198 pM | 7.9e-05 | IC50 (MDA-MB-231 cells): 0.000173 µg/mL and 0.284 nM; IC50 (MCF-7 cells): 0.000132 µg/mL and 0.218 nM; IC50 (U937 cells; read-out: IC50): 131 pM |
